*1 amine or outer side, *2 acyl side, *3 side chain or, on linkers, in order; H or OH if unused. Where a SMILES comes first, the peptide text is derived from it. Bridges are numbered along the chain shown (N, C = ends). Roman numbers before positions name the chains, in order. [ ]: non-standard residue; d: D form. Actinocin(1to9) = Cc1c2oc3c(C)ccc(C(=O)[*:2])c3nc-2c(C(=O)[*:1])c(N)c1=O; Pro(4-oxo) = O=C1CN[C@H](C(=O)O)C1; NMeV = CN[C@H](C(=O)O)C(C)C; Sar = CNCC(=O)O
Tests used:
[1] = test system: dormant tubercle bacilli grown under hypoxic condition; assay: Activity against latent TB bacilli, Wayne's dormant model; type: cell-based, M. tuberculosis
[2] = test system: M. tuberculosis H37Rv; assay: microbe, parasite or virus in culture; type: cell-based; details: Mycobacterium tuberculosis
[3] = test system: M. tuberculosis SHRE sensitive; assay: microbe, parasite or virus in culture; type: cell-based; details: Mycobacterium tuberculosis
[4] = test system: M. tuberculosis (XDR); assay: microbe, parasite or virus in culture; type: cell-based; details: Mycobacterium tuberculosis
[5] = test system: biofilm of M. tuberculosis isolates (SHRE sensitive, MDR and XDR); assay: Inhibitory activity against MTB biofilm; type: cell-based
[6] = test system: Escherichia coli (NCIM2931); assay: MIC by micro dilution broth assay with resazurin; type: cell-based; details: 18 hours at 37° C.
Experimental: (§1) The minimum inhibitory concentration (MIC) of the compound of formula (I) is determined for other bacterial pathogens Staphylococcus aureus (NCIM5021), Pseudomonas aeruginosa (NClM5029) and Escherichia coli (NCIM2931). The minimum inhibitory concentration (MIC) is determined by micro dilution broth assay method with modifications using resazurin as an indicator as follows:
(§2) (i) dissolving the compound of formula (I) in absolute ethanol to a concentration of 10 mg/ml;
(§3) (ii) Serially diluting the compound and adding to successive wells in a 96 well microtiter plate and incubating with the bacterial pathogens for 18 hours at 37° C.;
(§4) (iii) maintaining the growth and sterility controls during the experiment;
(§5) (iv) adding 10 μl of 0.01% resazurin solution and incubating for 2 hours;
(§6) (v) visually assessing the color change.
(§7) Blue colour indicates inhibition of growth, indicating MIC.

[7] = test system: Pseudomonas aeruginosa (NCIM5029); assay: MIC by micro dilution broth assay with resazurin; type: cell-based; details: 18 hours at 37° C.
Experimental: as §1, §2, §3, §4, §5, §6, §7

[8] = test system: Staphylococcus aureus (NCIM5021); assay: MIC by micro dilution broth assay with resazurin; type: cell-based; details: 18 hours at 37° C.
Experimental: as §1, §2, §3, §4, §5, §6, §7

[9] = test system: HIV IIIB (Clade B virus); assay: Anti-HIV activity of purified compound, p24 antigen in infected PBMC; type: cell-based, HIV-1; details: day 7, 0 μg/ml control 2394
Experimental: (§8) Virus production by transfection of 293T cells: 293T cells are plated at a concentration of 1×10^6 cells/ml in a 100 mm culture dish and grown at 37° C. in a CO2 incubator for 24 hours. Cells are transfected with 20 μg of HIV IIIB plasmid DNA using the mammalian cell transfection kit (Millipore). The culture supernatant is collected at 48 hours post transfection, clarified by centrifugation and stored in liquid nitrogen.
(§9) Titration of virus stock: Seven serial four-fold dilutions of virus stock, ranging from 1:[…] are titrated in triplicate in a 96-well flat bottomed tissue culture plate containing 200,000 cells/well (PBMC stimulated with PHA for 72 hours). After 7 days of culture at 37° C. in a CO2 incubator, the titration assay is terminated and the culture supernatants are tested for HIV-1 p24 antigen. The TCID50 (tissue culture infection dose50) is calculated employing the Spearman-Kaber method.
(§10) Testing for anti-HIV activity of compound: HIV IIIB is used as a representative Glade B virus and Indie-Cl as a representative Glade C virus. Healthy donor PBMC (Peripheral blood mononuclear cells) activated through PHA (Phyto heme agglutinin) stimulation for 72 hours are incubated with 100TCID50 of the virus per 1×10^6 cells for 2 hours at 37° C. The cells are washed twice to get rid of the unadsorbed virus and plated at a concentration of 200,000 cells/well in a 96-well tissue culture plate. Varying concentrations of the compound are added to triplicate wells (concentrations tested were 0.001 μg/ml, 001 μg/ml, 0.1 μg/ml, 1.0 μg/ml, 5.0 μg/ml and 10.0 tg/ml). Control cultures are set up without addition of the compound. Cultures are maintained for 7 days at 37° C. in a CO2 incubator. On day 7, culture supernatants are tested for HIV-1 p24 antigen.
(§11) Measurement of HIV-1 p24 antigen: HIV-1 p24 antigen production is measured as an indirect measure of viral replication in the culture supernatants using the Alliance HIV-1 p24 ELISA kit (Perkin Elmer, USA).
(§12) Virus growth is .determined, by measuring p24 concentrations in culture supernatants.

[10] = test system: Indie-Cl (Clade C virus); assay: as above; type: cell-based, HIV-1; details: day 7, 0 μg/ml control 406
Experimental: as §8, §9, §10, §11, §12

[11] = test system: 3T3 cells; assay: Cytotoxicity, MTT assay; type: cell-based; parameters: unit of the concentration uncertain; details: for Average % Viability: 3T3 cells, MTT
Experimental: Cytotoxicity of the compound is measured by adopting MTT assay (Mosmann, 1983) as follows:
(i) preparing, the sample by inoculating 3T3 cells in 5×10^4 concentrations in each well of 96 well microtiter plates with in Dulbecco's modified Eagles medium (DMEM) containing 10% FBS, 100 U/ml Penicillin 100 µg/ml Streptomycin;
(ii) incubating for a period of 2 days at a temperature of 37° C. in 5% CO2 atmosphere (Astec Japan); […]
(iv) Discarding the growth medium in the plates and washing the wells with phosphate buffer saline (PBS);
(v) Adding MTT in growth medium at a final concentration of 0.5 mg/ml and incubating for 4 hours;
(vi) solublizing the insoluble formazan crystals' with 0.04N HCl in isopropylalcohol and measuring the absorption on a Spectramax Plus384 spectrophotometer (Molecular Devices, Calif., USA) at 570 nm.
For each of the samples evaluated, the test is performed in triplicate. The control cells are treated with PBS. Overnight experiment is done with DMSO alone as a control.

[12] = Solubility of purified compound in solvents; type: physicochemical
Experimental: Solubility of purified compound is tested by adding the purified compound in 100 jxl of solvents such as methanol, chloroform, dichloromethane, diethyl ether, ethyl acetate and n-hexane. Melting point of the purified compound is tested using Tempo instrument and is determined as 240-242° C.

**Q.** For `NNC(=O)c1ccncc1` [INH, reference compound], which “Effect of standard drug against latent tubercle bacilli” value ([1]; negative control) is on record?
**A.** The value was “resistant”.

**Q.** For `Cc1c2oc3c(C)ccc(C(=O)N[C@@H]4C(=O)N[C@@H](C(C)C)C(=O)N5CCC[C@H]5C(=O)N(C)CC(=O)N(C)[C@@H](C(C)C)C(=O)O[C@@H]4C)c3nc-2c(C(=O)N[C@@H]2C(=O)N[C@@H](C(C)C)C(=O)N3CC(=O)C[C@H]3C(=O)N(C)CC(=O)N(C)[C@@H](C(C)C)C(=O)O[C@@H]2C)c(N)c1=O` [compound of formula (I), Transitmycin] (I: TV[Pro(4-oxo)][Sar][NMeV] / II: TVP[Sar][NMeV]; ester I:1-I:C, II:1-II:C; linker I:N-II:N via Actinocin(1to9)), which MIC [2] is on record?
**A.** The MIC was < 1 µg/mL.

**Q.** And the MIC [3]?
**A.** The MIC was 1.5 µg/mL.

**Q.** And the MIC [4]?
**A.** Its MIC is 6.25 µg/mL.

**Q.** What about the “CFU in M. tuberculosis cultures compared with CFU without the compound” value [1] of the same compound?
**A.** The value was “Reduction in the CFU”.

**Q.** And the Biofilm formation ([5]; 100 μg/ml, 37° C., 5 weeks)?
**A.** Its Biofilm formation is “no, biofilm formation”.

**Q.** And the “Viable colonies (CFU) after treatment of wells” value ([5]; at the end of 2 months, […])?
**A.** The value was “no viable colonies”.

**Q.** And the MIC [6]?
**A.** Its MIC is 17.4 µg/mL.

**Q.** What about the MIC [7] of the same compound?
**A.** The MIC was 17.4 µg/mL.

**Q.** What about the MIC [8] of the same compound?
**A.** The MIC was 139 µg/mL.

**Q.** What about the P24 antigen ([9]; compound 0.001 μg/ml) of the same compound?
**A.** The P24 antigen was 1603 pg/mL.

**Q.** What about the P24 antigen ([9]; compound 0.01 μg/ml) of the same compound?
**A.** The P24 antigen was 337 pg/mL.

**Q.** What about the P24 antigen ([9]; compound 0.1 μg/ml) of the same compound?
**A.** The P24 antigen was 163 pg/mL.

**Q.** And the P24 antigen ([9]; compound 1 μg/ml)?
**A.** The P24 antigen was 144 pg/mL.

**Q.** What about the P24 antigen ([9]; compound 5 μg/ml) of the same compound?
**A.** The P24 antigen was 147 pg/mL.

**Q.** What about the P24 antigen ([9]; compound 10 μg/ml) of the same compound?
**A.** The P24 antigen was 163 pg/mL.

**Q.** And the P24 antigen ([10]; compound 0.001 μg/ml)?
**A.** Its P24 antigen is 390 pg/mL.

**Q.** And the P24 antigen ([10]; compound 0.01 μg/ml)?
**A.** The P24 antigen was 310 pg/mL.

**Q.** What about the P24 antigen ([10]; compound 0.1 μg/ml) of the same compound?
**A.** Its P24 antigen is 344 pg/mL.

**Q.** And the P24 antigen ([10]; compound 1 μg/ml)?
**A.** Its P24 antigen is 302 pg/mL.

**Q.** What about the P24 antigen ([10]; compound 5 μg/ml) of the same compound?
**A.** Its P24 antigen is 295 pg/mL.

**Q.** And the P24 antigen ([10]; compound 10 μg/ml)?
**A.** Its P24 antigen is 296 pg/mL.

**Q.** And the “Average % Viability” value ([11]; 10 (unit uncertain))?
**A.** Its value is 93.00%.

**Q.** What about the “Average % Viability” value ([11]; 25 (unit uncertain)) of the same compound?
**A.** The value was 86.01%.

**Q.** What about the “Average % Viability” value ([11]; 50 (unit uncertain)) of the same compound?
**A.** Its value is 73.88%.

**Q.** And the “Average % Viability” value ([11]; 100 (unit uncertain))?
**A.** Its value is 66.13%.

**Q.** And the Cytotoxic activity ([11]; even at 100 (unit uncertain) concentration)?
**A.** Its Cytotoxic activity is “very poor cytotoxic activity”.

**Q.** What about the Solubility ([12]; Chloroform, Dichloromethane, Ethyl acetate, Methanol, Ethanol, Acetonitrile, DMSO, water) of the same compound?
**A.** Its Solubility is “Souble”.

**Q.** And the Solubility ([12]; Hexane)?
**A.** Its Solubility is “Insoluble”.
